The values below are quoted from earlier work in US6344571B2, “Water soluble analogs and prodrugs of paclitaxel” (Pharmachemie B.V., priority 1998, dated 2002).

In one data set the test system is microtubule assembly. As to conditions: SAR studies, literature; cited from earlier work.
The conditions of data set [1]: SAR studies, literature; cited from earlier work.

As to `CC(=O)O[C@H]1C(=O)[C@]2(C)[C@@H](OC(C)=O)C[C@H]3OC[C@@]3(OC(C)=O)[C@H]2[C@H](OC(=O)c2ccccc2)[C@]2(O)C[C@H](OC(=O)[C@H](O)[C@@H](NC(=O)c3ccccc3)c3ccccc3)C(C)=C1C2(C)C` [7-acetylpaclitaxel], the “activity in microtubule assembly assays” value with microtubule assembly was “as active as paclitaxel”. As to `CC(=O)O[C@H]1C(=O)[C@@]2(C)[C@H]([C@H](OC(=O)c3ccccc3)[C@]3(O)C[C@H](OC(=O)[C@H](OC(C)=O)[C@@H](NC(=O)c4ccccc4)c4ccccc4)C(C)=C1C3(C)C)[C@]1(OC(C)=O)CO[C@@H]1C[C@@H]2O` [2′-acetyl-paclitaxel], the “cytotoxic activity compared with paclitaxel” value in data set [1] is “almost the same as for paclitaxel”. In addition, in the data set on microtubule assembly, the “activity in microtubule assembly assays” value is “loss of the ability to promote microtubule assembly”.
